From ChEMBL document CHEMBL1201862, “PubChem BioAssay data set” (2004)
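Compound exposure: 48 hours, 5 concentrations, 96-well plates. Here, GI50 denotes the concentration required for 50% inhibition of growth.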 The source made the active and inactive calls. Cut-off read from the data, not from the text of the source: active = GI50 up to about 1.1 µM and inactive = higher.

Tests used:
Assay in all cases: NCI anticancer screen, dose series, 48 h
[1] = tested on: 786-0
[2] = tested on: A498
[3] = tested on: A549
[4] = tested on: ACHN
[5] = tested on: CAKI-1
[6] = tested on: CCRF-CEM
[7] = tested on: COLO 205
[8] = tested on: DLD-1
[9] = tested on: DMS-114
[10] = tested on: DMS-273
[11] = tested on: EKVX
[12] = tested on: HCC 2998
[13] = tested on: HCT-116
[14] = tested on: HCT-15
[15] = tested on: HL-60
[16] = tested on: HOP-18
[17] = tested on: HOP-62
[18] = tested on: HOP-92
[19] = tested on: HT-29
[20] = tested on: IGROV-1
[21] = tested on: K562
[22] = tested on: KM-20L2
[23] = tested on: KM12
[24] = tested on: LOX IMVI
[25] = tested on: LXFL 529
[26] = tested on: M14
[27] = tested on: M19-MEL
[28] = tested on: MOLT-4
[29] = tested on: Malme-3M
[30] = tested on: NCI-H226
[31] = tested on: NCI-H23
[32] = tested on: NCI-H460
[33] = tested on: NCI-H522
[34] = tested on: OVCAR-3
[35] = tested on: OVCAR-4
[36] = tested on: OVCAR-5
[37] = tested on: OVCAR-8
[38] = tested on: RPMI-8226
[39] = tested on: RXF 393
[40] = tested on: SF-268
[41] = tested on: SF-295
[42] = tested on: SF-539
[43] = tested on: SK-MEL-28
[44] = tested on: SK-MEL-2
[45] = tested on: SK-MEL-5
[46] = tested on: SK-OV-3
[47] = tested on: SN12C
[48] = tested on: SNB-19
[49] = tested on: SNB-75
[50] = tested on: SW-620
[51] = tested on: TK-10
[52] = tested on: U-251
[53] = tested on: UACC-62
[54] = tested on: XF498
[55] = tested on: SNB-78
[56] = tested on: UACC-257
[57] = tested on: UO-31

**Q.** With `Cc1ccc2c(CC(=O)O)cc(=O)oc2c1` as the compound, how does the GI50 [1] read?
**A.** Its GI50 is > 100 µM (inactive).

**Q.** And the GI50 [2]?
**A.** Its GI50 is > 100 µM (inactive).

**Q.** And the GI50 [3]?
**A.** The GI50 was > 100 µM (inactive).

**Q.** What about the GI50 [4] of the same compound?
**A.** The GI50 was > 100 µM (inactive).

**Q.** What about the GI50 [5] of the same compound?
**A.** Its GI50 is > 100 µM (inactive).

**Q.** What about the GI50 [6] of the same compound?
**A.** The GI50 was > 100 µM (inactive).

**Q.** What about the GI50 [7] of the same compound?
**A.** The GI50 was > 100 µM (inactive).

**Q.** And the GI50 [8]?
**A.** Its GI50 is > 100 µM (inactive).

**Q.** And the GI50 [9]?
**A.** The GI50 was > 100 µM (inactive).

**Q.** And the GI50 [10]?
**A.** The GI50 was 37.2 µM (inactive).

**Q.** And the GI50 [11]?
**A.** Its GI50 is > 100 µM (inactive).

**Q.** What about the GI50 [12] of the same compound?
**A.** The GI50 was > 100 µM (inactive).

**Q.** What about the GI50 [13] of the same compound?
**A.** Its GI50 is > 100 µM (inactive).

**Q.** What about the GI50 [14] of the same compound?
**A.** The GI50 was > 100 µM.

**Q.** What about the GI50 [15] of the same compound?
**A.** Its GI50 is > 100 µM (inactive).

**Q.** And the GI50 [16]?
**A.** Its GI50 is > 100 µM (inactive).

**Q.** What about the GI50 [17] of the same compound?
**A.** The GI50 was > 100 µM (inactive).

**Q.** What about the GI50 [18] of the same compound?
**A.** The GI50 was > 100 µM (inactive).

**Q.** And the GI50 [19]?
**A.** Its GI50 is > 100 µM (inactive).

**Q.** What about the GI50 [20] of the same compound?
**A.** The GI50 was > 100 µM (inactive).

**Q.** And the GI50 [21]?
**A.** Its GI50 is > 100 µM (inactive).

**Q.** And the GI50 [22]?
**A.** The GI50 was > 100 µM (inactive).

**Q.** What about the GI50 [23] of the same compound?
**A.** Its GI50 is > 100 µM (inactive).

**Q.** And the GI50 [24]?
**A.** Its GI50 is > 100 µM (inactive).

**Q.** What about the GI50 [25] of the same compound?
**A.** The GI50 was > 100 µM (inactive).

**Q.** And the GI50 [26]?
**A.** Its GI50 is > 100 µM (inactive).

**Q.** And the GI50 [27]?
**A.** The GI50 was > 100 µM (inactive).

**Q.** And the GI50 [28]?
**A.** Its GI50 is > 100 µM (inactive).

**Q.** And the GI50 [29]?
**A.** Its GI50 is > 100 µM (inactive).

**Q.** What about the GI50 [30] of the same compound?
**A.** Its GI50 is > 100 µM (inactive).

**Q.** And the GI50 [31]?
**A.** The GI50 was > 100 µM (inactive).

**Q.** What about the GI50 [32] of the same compound?
**A.** The GI50 was > 100 µM (inactive).

**Q.** What about the GI50 [33] of the same compound?
**A.** The GI50 was > 100 µM (inactive).

**Q.** And the GI50 [34]?
**A.** Its GI50 is > 100 µM (inactive).

**Q.** What about the GI50 [35] of the same compound?
**A.** Its GI50 is > 100 µM (inactive).

**Q.** What about the GI50 [36] of the same compound?
**A.** Its GI50 is > 100 µM (inactive).

**Q.** And the GI50 [37]?
**A.** The GI50 was > 100 µM (inactive).

**Q.** And the GI50 [38]?
**A.** Its GI50 is > 100 µM (inactive).

**Q.** What about the GI50 [39] of the same compound?
**A.** Its GI50 is 3.72 µM (inactive).

**Q.** And the GI50 [40]?
**A.** Its GI50 is > 100 µM (inactive).

**Q.** What about the GI50 [41] of the same compound?
**A.** Its GI50 is > 100 µM (inactive).

**Q.** And the GI50 [42]?
**A.** Its GI50 is > 100 µM (inactive).

**Q.** What about the GI50 [43] of the same compound?
**A.** Its GI50 is > 100 µM (inactive).

**Q.** And the GI50 [44]?
**A.** The GI50 was > 100 µM (inactive).

**Q.** And the GI50 [45]?
**A.** Its GI50 is > 100 µM (inactive).

**Q.** What about the GI50 [46] of the same compound?
**A.** The GI50 was > 100 µM (inactive).

**Q.** What about the GI50 [47] of the same compound?
**A.** Its GI50 is > 100 µM (inactive).

**Q.** And the GI50 [48]?
**A.** The GI50 was > 100 µM (inactive).

**Q.** And the GI50 [49]?
**A.** The GI50 was 44.9 µM (inactive).

**Q.** And the GI50 [50]?
**A.** The GI50 was > 100 µM (inactive).

**Q.** What about the GI50 [51] of the same compound?
**A.** Its GI50 is > 100 µM (inactive).

**Q.** What about the GI50 [52] of the same compound?
**A.** The GI50 was > 100 µM (inactive).

**Q.** What about the GI50 [53] of the same compound?
**A.** Its GI50 is > 100 µM (inactive).

**Q.** What about the GI50 [54] of the same compound?
**A.** The GI50 was 2.86 µM (inactive).

**Q.** Which results are given for `COc1cc2c3cc1Oc1c(O)c(OC)cc4c1C(Cc1ccc(O)c(c1)Oc1ccc(cc1)CC3N(C)CC2)N(C)CC4` (stereo not given)?
**A.** GI50 [1]: 13.2 µM (inactive); GI50 [2]: 18.2 µM (inactive); GI50 [3]: 17.6 µM (inactive); GI50 [4]: 19 µM (inactive); GI50 [5]: 17.3 µM (inactive); GI50 [6]: 8.57 µM (inactive); GI50 [7]: 19.5 µM (inactive); GI50 [9]: 20 µM (inactive); GI50 [10]: 13 µM (inactive); GI50 [11]: 21.9 µM (inactive); GI50 [12]: 5.61 µM (inactive); GI50 [13]: 6.55 µM (inactive); GI50 [14]: 11.6 µM; GI50 [15]: 21.5 µM (inactive); GI50 [16]: 27.9 µM (inactive); GI50 [17]: 18.7 µM (inactive); GI50 [18]: 11.9 µM (inactive); GI50 [19]: 7.13 µM (inactive); GI50 [20]: 26.2 µM (inactive); GI50 [21]: 3.03 µM (inactive); GI50 [22]: 5.56 µM (inactive); GI50 [23]: 11.1 µM (inactive); GI50 [24]: 3.01 µM (inactive); GI50 [25]: 4.92 µM (inactive); GI50 [26]: 3.11 µM (inactive); GI50 [27]: 21.7 µM (inactive); GI50 [28]: 8.34 µM (inactive); GI50 [29]: 18.2 µM (inactive); GI50 [30]: 21.4 µM (inactive); GI50 [31]: 23.7 µM (inactive); GI50 [32]: 15.1 µM (inactive); GI50 [33]: 15.1 µM (inactive); GI50 [34]: 16.9 µM (inactive); GI50 [35]: 13.8 µM (inactive); GI50 [36]: 22.7 µM (inactive); GI50 [37]: 14.3 µM (inactive); GI50 [38]: 15.1 µM (inactive); GI50 [39]: 2.44 µM (inactive); GI50 [40]: 16.8 µM (inactive); GI50 [41]: 16.1 µM (inactive); GI50 [42]: 2.46 µM (inactive); GI50 [43]: 18.3 µM (inactive); GI50 [44]: 23.6 µM (inactive); GI50 [45]: 18.5 µM (inactive); GI50 [46]: 23.3 µM (inactive); GI50 [47]: 15.3 µM (inactive); GI50 [48]: 26 µM (inactive); GI50 [49]: 15 µM (inactive); GI50 [55]: 24.9 µM (inactive); GI50 [50]: 4.44 µM (inactive); GI50 [51]: 13.6 µM (inactive); GI50 [52]: 14.2 µM (inactive); GI50 [56]: 18.6 µM (inactive); GI50 [53]: 23.2 µM (inactive); GI50 [57]: 15.8 µM (inactive); GI50 [54]: 19.4 µM (inactive)
